The target in data set [1] is cellular sigma receptors (C6 rat glioma cells) (Rattus norvegicus, UniProt Q9R0C9). Description: Competition with 11C-SA4503 binding to intact C6 glioma cell monolayers. The following applies: for competition with 11C-SA4503 for binding to cellular sigma receptors: 50 µM competitor added to normal growth medium (DMEM with 7.5% FCS); for reduction of 11C-SA4503 radioligand binding to C6 cells: 50 µM competitor, steroid-free medium; for rank order of potency as competitor of 11C-SA4503 binding: C6 cells, both normal and steroid-depleted medium, 50 µM.

Data set [2] has as its system endogenous steroid levels in the brain (progesterone, pregnenolone). Particulars: male rats, sodium pentobarbital 0.2 mmol/kg i.p.; cited from earlier work.
Data set [3] concerns the target sigma-1 receptors in tumour and brain (Rattus norvegicus, UniProt Q9R0C9). Nature of the data set: microPET scanning of 11C-SA4503 in C6 glioma-bearing Wistar rats.
Data set [4] in a line: Ex vivo biodistribution of 11C-SA4503 in C6 glioma-bearing Wistar rats. Particulars: for SUV of 11C, C6 tumour / SUV of 11C, Cerebellum / SUV of 11C, Cerebral cortex: 60 min after injection.
The subject of data set [5] is Plasma progesterone. Particulars: female rats; cited from earlier work.
Setting [6] is: prolonged pentobarbital anaesthesia vs control.
Where [7] appears, read: prolonged pentobarbital anaesthesia, n = 5.
Setting [8] is: progesterone 3 x 10 mg i.p. in arachid oil vs arachid oil.

Entries after “also recorded” stand apart in the source; their conditions may differ.

sigma-1 receptors in tumour and brain, sequence (Q9R0C9 whole entry): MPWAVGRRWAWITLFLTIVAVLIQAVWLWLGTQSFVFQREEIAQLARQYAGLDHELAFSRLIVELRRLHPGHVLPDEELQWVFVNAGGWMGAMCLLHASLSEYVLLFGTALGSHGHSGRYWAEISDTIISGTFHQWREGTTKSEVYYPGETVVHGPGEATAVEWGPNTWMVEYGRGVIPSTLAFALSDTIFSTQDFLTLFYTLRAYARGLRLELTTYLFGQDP
cellular sigma receptors (C6 rat glioma cells), sequence (Q9R0C9 whole entry): as above

With `C[C@]12CC[C@H]3[C@@H](CCC4=CC(=O)CC[C@@]43C)[C@@H]1CC[C@@H]2O` [testosterone], in data set [1], the “competition with 11C-SA4503 for binding to cellular sigma receptors” value (from here on “competition with 11C-SA4503 for binding”) is reported as “measurable competition”, the “reduction of 11C-SA4503 radioligand binding to C6 cells” value is on record as 40% and the “rank order of potency as competitor of 11C-SA4503 binding” value (“rank order of potency” below) is listed as “progesterone > androstanolone = testosterone = allopregnanolone > DHEA-S”.

As to `C[C@]12CC[C@H](OS(=O)(=O)[O-])CC1=CC[C@@H]1[C@@H]2CC[C@]2(C)C(=O)CC[C@@H]12.[Na+]` [DHEA-S, dehydroepiandrosterone 3-sulphate sodium salt], in data set [1], the “competition with 11C-SA4503 for binding” value is recorded as “no statistically significant effect”, the “reduction of 11C-SA4503 radioligand binding to C6 cells” value is reported as “significant decrease” and the “rank order of potency” value was “progesterone > androstanolone = testosterone = allopregnanolone > DHEA-S”.

In the case of `CCCC(C)C1(CC)C(=O)NC(=O)NC1=O` (stereo not drawn) [pentobarbital], the “decline of endogenous steroid levels in the brain (progesterone, pregnenolone)” value in data set [2] was greater than 70%. In data set [3] (prolonged pentobarbital anaesthesia (>3.5 h) vs short (<20 min)), the “effect on kinetics of 11C-SA4503 radioactivity in blood pool (right lung)” value is given as “unaffected; also recorded: did not significantly affect”. The “inhibition of 11C-SA4503 binding to C6 cells” value in data set [1] (up to 1 mM in normal medium) was “did not result in any inhibition”. For the same molecule, in data set [4] (setting [6]), the “effect on amount of 11C-SA4503 radioactivity in the liver (biodistribution)” value is “significantly decreased”; the “effect on plasma levels of 11C-SA4503 radioactivity (biodistribution)” value was “not changed”; the “effect on sigma ligand binding in C6 tumour, brain (cerebellum, cerebral cortex), bone, bone marrow, large intestine, blood cells and spleen (biodistribution)” value is “significant increase”. Besides, in data set [5], the “effect on plasma progesterone” value is reported as “decreased”.

Turning to `COc1ccc(CCN2CCN(CCCc3ccccc3)CC2)cc1OC` [11C-SA4503], in data set [4] (control (arachid oil), n = 4), the “SUV of 11C, C6 tumour” value is given as 0.83; the “SUV of 11C, Cerebellum” value is 1.66; the “SUV of 11C, Cerebral cortex” value came to 1.50. In data set [4] (setting [7]), the “SUV of 11C, C6 tumour” value was determined as 1.52; the “SUV of 11C, Cerebellum” value is on record as 2.41; the “SUV of 11C, Cerebral cortex” value was determined as 2.38.

Take `CC(=O)[C@H]1CC[C@H]2[C@@H]3CCC4=CC(=O)CC[C@]4(C)[C@H]3CC[C@]12C` [progesterone]: in data set [3] (setting [8]), the “effect on 11C-SA4503 tracer kinetics in blood pool (microPET)” value is listed as “did not significantly affect; also recorded: not accompanied by any significant change” and the “effect on 11C-SA4503 tracer kinetics in brain (microPET)” value is recorded as “did not significantly affect”. Also, in data set [4] (progesterone 3 x 10 mg i.p. vs arachid oil, 60 min after tracer), the “decrease of sigma ligand (11C-SA4503) binding in C6 tumour (biodistribution)” value turned out to be 31%.

As for `C[C@]12CCC(=O)C[C@@H]1CC[C@@H]1[C@@H]2CC[C@]2(C)[C@@H](O)CC[C@@H]12` [androstanolone, 5α-androstan-17β-ol-3-one], in data set [1], the “competition with 11C-SA4503 for binding” value is reported as “measurable competition” and the “rank order of potency” value is listed as “progesterone > androstanolone = testosterone = allopregnanolone > DHEA-S”.

The record behind these values is publication PMC2691528 (European Journal of Nuclear Medicine and Molecular Imaging, 2009).
